{"source": "patent US11005049B2", "about": "“Metal complexes” (priority 2013, dated 2021)", "key": {"[1]": {"test_system": "Salmonella typhimurium strain TA100", "experimental": "Compounds V1 and E2 are subjected to a standardised AMES test (bacteria: Salmonella typhimurium; strains TA98, TA100 and TA102). […] The test is carried out by the person skilled in the art employing standard methods which are well known in the prior art. The solvent used is DMSO (dimethyl sulfoxide).\nThe test is carried out both without and also with metabolic activation using an S9 mix."}, "[2]": {"test_system": "Salmonella typhimurium strain TA102", "assay": "standardised AMES test, strain TA102", "type": "cell-based"}, "[3]": {"test_system": "Salmonella typhimurium strain TA98", "assay": "standardised AMES test, strain TA98", "type": "cell-based", "text": "(§1) The solvent used is DMSO (dimethyl sulfoxide)."}, "[4]": {"test_system": "Salmonella typhimurium; strains TA98, TA100 and TA102", "assay": "standardised AMES test, overall mutagenicity finding", "type": "cell-based", "text": "as §1"}, "[5]": {"settings": "metabolic activation using S9 mix, 5 μg/plate"}, "[6]": {"settings": "metabolic activation using S9 mix, 15.8 μg/plate"}, "[7]": {"settings": "metabolic activation using S9 mix, 50 μg/plate"}, "[8]": {"settings": "metabolic activation using S9 mix, 158 μg/plate"}, "[9]": {"settings": "metabolic activation using S9 mix, 500 μg/plate"}, "[10]": {"settings": "metabolic activation using S9 mix, 1580 μg/plate"}, "[11]": {"settings": "metabolic activation using S9 mix, 5000 μg/plate"}, "[12]": {"settings": "no metabolic activation, 5 μg/plate"}, "[13]": {"settings": "no metabolic activation, 15.8 μg/plate"}, "[14]": {"settings": "no metabolic activation, 50 μg/plate"}, "[15]": {"settings": "no metabolic activation, 158 μg/plate"}, "[16]": {"settings": "no metabolic activation, 500 μg/plate"}, "[17]": {"settings": "no metabolic activation, 1580 μg/plate"}, "[18]": {"settings": "no metabolic activation, 5000 μg/plate"}}, "note": "Several values for one entry are separate records, joined by “and”; a condition that tells them apart may be missing. Identical values can stand only once. Like-named read-outs stand apart in the source and are kept apart here.", "data": [{"smiles": "CC(C)(C)c1ccc2cccc(O)c2n1.[Li]", "note": "[Compound E2, lithium 2-tert-butyl-8-hydroxyquinoline]", "values": [{"measurement": "Revertants/plate (mean ± SD) TA100", "setting": "[1]; [5]", "result": "199 ± 4", "unit": "Revertants/plate"}, {"measurement": "Revertants/plate (mean ± SD) TA100", "setting": "[1]; [6]", "result": "132 ± 11", "unit": "Revertants/plate"}, {"measurement": "Revertants/plate (mean ± SD) TA100", "setting": "[1]; [7]", "result": "143 ± 8", "unit": "Revertants/plate"}, {"measurement": "Revertants/plate (mean ± SD) TA100", "setting": "[1]; [8]", "result": "147 ± 8^S Revertants/plate"}, {"measurement": "Revertants/plate (mean ± SD) TA100", "setting": "[1]; [9]", "result": "108 ± 1^SB Revertants/plate"}, {"measurement": "Revertants/plate (mean ± SD) TA100", "setting": "[1]; [10]", "result": "57 ± 16", "unit": "Revertants/plate"}, {"measurement": "Revertants/plate (mean ± SD) TA100", "setting": "[1]; [11]", "result": "4 ± 3", "unit": "Revertants/plate"}, {"measurement": "Revertants/plate (mean ± SD) TA100", "setting": "[1]; [12]", "result": "142 ± 25", "unit": "Revertants/plate"}, {"measurement": "Revertants/plate (mean ± SD) TA100", "setting": "[1]; [13]", "result": "133 ± 8", "unit": "Revertants/plate"}, {"measurement": "Revertants/plate (mean ± SD) TA100", "setting": "[1]; [14]", "result": "104 ± 12", "unit": "Revertants/plate"}, {"measurement": "Revertants/plate (mean ± SD) TA100", "setting": "[1]; [15]", "result": "103 ± 1^S Revertants/plate"}, {"measurement": "Revertants/plate (mean ± SD) TA100", "setting": "[1]; [16]", "result": "62 ± 17^SB Revertants/plate"}, {"measurement": "Revertants/plate (mean ± SD) TA100", "setting": "[1]; [17]", "result": "41 ± 2", "unit": "Revertants/plate"}, {"measurement": "Revertants/plate (mean ± SD) TA100", "setting": "[1]; [18]", "result": "7 ± 3", "unit": "Revertants/plate"}, {"measurement": "Revertants/plate (mean ± SD) TA102", "setting": "[2]; [5]", "result": "302 ± 18", "unit": "Revertants/plate"}, {"measurement": "Revertants/plate (mean ± SD) TA102", "setting": "[2]; [6]", "result": "255 ± 8", "unit": "Revertants/plate"}, {"measurement": "Revertants/plate (mean ± SD) TA102", "setting": "[2]; [7]", "result": "245 ± 22", "unit": "Revertants/plate"}, {"measurement": "Revertants/plate (mean ± SD) TA102", "setting": "[2]; [8]", "result": "142 ± 22^S Revertants/plate"}, {"measurement": "Revertants/plate (mean ± SD) TA102", "setting": "[2]; [9]", "result": "89 ± 11^SB Revertants/plate"}, {"measurement": "Revertants/plate (mean ± SD) TA102", "setting": "[2]; [10]", "result": "62 ± 3^SB Revertants/plate"}, {"measurement": "Revertants/plate (mean ± SD) TA102", "setting": "[2]; [11]", "result": "37 ± 1^SE Revertants/plate"}, {"measurement": "Revertants/plate (mean ± SD) TA102", "setting": "[2]; [12]", "result": "224 ± 6", "unit": "Revertants/plate"}, {"measurement": "Revertants/plate (mean ± SD) TA102", "setting": "[2]; [13]", "result": "217 ± 41", "unit": "Revertants/plate"}, {"measurement": "Revertants/plate (mean ± SD) TA102", "setting": "[2]; [14]", "result": "237 ± 11", "unit": "Revertants/plate"}, {"measurement": "Revertants/plate (mean ± SD) TA102", "setting": "[2]; [15]", "result": "180 ± 11^S Revertants/plate"}, {"measurement": "Revertants/plate (mean ± SD) TA102", "setting": "[2]; [16]", "result": "124 ± 1^SB Revertants/plate"}, {"measurement": "Revertants/plate (mean ± SD) TA102", "setting": "[2]; [17]", "result": "51 ± 18^SB Revertants/plate"}, {"measurement": "Revertants/plate (mean ± SD) TA102", "setting": "[2]; [18]", "result": "25 ± 1^SE Revertants/plate"}, {"measurement": "Revertants/plate (mean ± SD) TA98", "setting": "[3]; [5]", "result": "24 ± 6", "unit": "Revertants/plate"}, {"measurement": "Revertants/plate (mean ± SD) TA98", "setting": "[3]; [6]", "result": "30 ± 2", "unit": "Revertants/plate"}, {"measurement": "Revertants/plate (mean ± SD) TA98", "setting": "[3]; [7]", "result": "33 ± 4", "unit": "Revertants/plate"}, {"measurement": "Revertants/plate (mean ± SD) TA98", "setting": "[3]; [8]", "result": "30 ± 3^S Revertants/plate"}, {"measurement": "Revertants/plate (mean ± SD) TA98", "setting": "[3]; [9]", "result": "25 ± 7^SB Revertants/plate"}, {"measurement": "Revertants/plate (mean ± SD) TA98", "setting": "[3]; [10]", "result": "18 ± 5^SB Revertants/plate"}, {"measurement": "Revertants/plate (mean ± SD) TA98", "setting": "[3]; [11]", "result": "13 ± 1^SE Revertants/plate"}, {"measurement": "Revertants/plate (mean ± SD) TA98", "setting": "[3]; [12]", "result": "23 ± 11", "unit": "Revertants/plate"}, {"measurement": "Revertants/plate (mean ± SD) TA98", "setting": "[3]; [13]", "result": "29 ± 3", "unit": "Revertants/plate"}, {"measurement": "Revertants/plate (mean ± SD) TA98", "setting": "[3]; [14]", "result": "18 ± 6", "unit": "Revertants/plate"}, {"measurement": "Revertants/plate (mean ± SD) TA98", "setting": "[3]; [15]", "result": "20 ± 6^S Revertants/plate"}, {"measurement": "Revertants/plate (mean ± SD) TA98", "setting": "[3]; [16]", "result": "14 ± 8^SB Revertants/plate"}, {"measurement": "Revertants/plate (mean ± SD) TA98", "setting": "[3]; [17]", "result": "10 ± 4^SB Revertants/plate"}, {"measurement": "Revertants/plate (mean ± SD) TA98", "setting": "[3]; [18]", "result": "17 ± 6^SE Revertants/plate"}, {"measurement": "mutagenic effect in AMES test", "setting": "[4]; both without and with metabolic activation using an S9 mix", "result": "No mutagenic effect"}]}, {"smiles": "Oc1cccc2cccnc12.[Li]", "note": "[Liq, lithium 8-hydroxyquinoline, reference compound]", "values": [{"measurement": "Revertants/plate (mean ± SD) TA102", "setting": "[2]; [5]", "result": "559 ± 8", "unit": "Revertants/plate"}, {"measurement": "Revertants/plate (mean ± SD) TA102", "setting": "[2]; [6]", "result": "697 ± 8", "unit": "Revertants/plate"}, {"measurement": "Revertants/plate (mean ± SD) TA102", "setting": "[2]; [7]", "result": "1469 ± 27", "unit": "Revertants/plate"}, {"measurement": "Revertants/plate (mean ± SD) TA102", "setting": "[2]; [8]", "result": "911 ± 269", "unit": "Revertants/plate"}, {"measurement": "Revertants/plate (mean ± SD) TA102", "setting": "[2]; [12]", "result": "344 ± 33", "unit": "Revertants/plate"}, {"measurement": "Revertants/plate (mean ± SD) TA102", "setting": "[2]; [13]", "result": "270 ± 30", "unit": "Revertants/plate"}, {"measurement": "Revertants/plate (mean ± SD) TA102", "setting": "[2]; [14]", "result": "257 ± 59", "unit": "Revertants/plate"}, {"measurement": "Revertants/plate (mean ± SD) TA98", "setting": "[3]; [5]", "result": "31 ± 11", "unit": "Revertants/plate"}, {"measurement": "Revertants/plate (mean ± SD) TA98", "setting": "[3]; [6]", "result": "40 ± 2", "unit": "Revertants/plate"}, {"measurement": "Revertants/plate (mean ± SD) TA98", "setting": "[3]; [7]", "result": "87 ± 1", "unit": "Revertants/plate"}, {"measurement": "Revertants/plate (mean ± SD) TA98", "setting": "[3]; [8]", "result": "100 ± 4", "unit": "Revertants/plate"}, {"measurement": "Revertants/plate (mean ± SD) TA98", "setting": "[3]; [12]", "result": "23 ± 2", "unit": "Revertants/plate"}, {"measurement": "Revertants/plate (mean ± SD) TA98", "setting": "[3]; [13]", "result": "20 ± 4", "unit": "Revertants/plate"}, {"measurement": "Revertants/plate (mean ± SD) TA98", "setting": "[3]; [14]", "result": "22 ± 1", "unit": "Revertants/plate"}, {"measurement": "mutagenicity in AMES test", "setting": "[4]; all three bacteria strains, in the presence of metabolic activation", "result": "significant mutagenicity"}]}, {"smiles": "[N-]=[N+]=[N-]", "note": "[NaN3, sodium azide, reference compound]", "values": [{"measurement": "Revertants/plate (mean ± SD) TA100", "setting": "[1]; no metabolic activation, 2 μg/plate, reference", "result": "1090 ± 35 Revertants/plate and 743 ± 52 Revertants/plate"}]}]}
